Measured values: patent US20070249695A1, “Preventive and/or Therapeutic Agents for Meniere's Disease” (priority 2004, published 2007)

Columns and labels:
Meniere's disease = conditions: existing drug (diuretic drug); cited from earlier work
mice = assay: acute toxicity, minimum lethal dose; assay type: in vivo; conditions: male and female, orally or subcutaneously
rats = assay: acute toxicity, minimum lethal dose; assay type: in vivo; conditions: male and female, orally or subcutaneously
[1] = tested on: patients afflicted with Meniere's disease; assay: clinical pharmacological test in patients afflicted with Meniere's disease (Example 1); assay type: in vivo; conditions: 450 mg daily
Description: Pranlukast hydrate (trade name: onon capsule) was administered to 19 patients afflicted with Meniere's disease at a daily dose of 450 mg (two capsules each containing 112.5 mg individually after breakfast and after dinner) for the period of not less than three weeks (up to 24 weeks max.) to test and determine the efficacy. The overall efficacy (therapeutic) assessment was performed mainly on the basis of the results of nystagmus and hearing tests, while also taking into consideration the subjective symptoms (rotary vertigo, tinnitus, a feeling of fullness in ear, hearing rimpairment, etc.) and the extent or degree of hearing impairment (average hearing, method of quartering). In consequence of this, the efficacy was recognized and determined in 17(89.5%) out of 19 patients afflicted with Meniere's disease.

[2] = tested on: patients suffering from acute low-tone sensorineural hearing loss; assay: clinical test in patients with acute low-tone sensorineural hearing loss (Example 2); assay type: in vivo; conditions: for Hearing in the sound ear 500 Hz: before administration 10 dB; for Hearing in the sound ear 250 Hz: before administration 15 dB; for Hearing in the sound ear Average hearing level: before administration 17 dB; for Hearing in the sound ear 125 Hz: before administration 25 dB; for Hearing in the affected ear 500 Hz: before administration 35 dB; for Hearing in the affected ear 125 Hz: before administration 40 dB; for Hearing in the affected ear Average hearing level: before administration 42 dB; for Hearing in the affected ear 250 Hz: before administration 50 dB
Description: Pranlukast hydrate (trade name: Onon capsule) was administered to the patients suffering from acute low-tone sensorineural hearing loss concurrently with a feeling of fullness in the left ear at a daily dose of 450 mg (two capsules each containing 112. 5 mg given individually after breakfast and dinner) for two months to investigate into the efficacy against hearing impairment, the major complaint. In connection to the above test, it is to be noted that selection of patients was performed in accordance with a draft of the Criteria for Diagnosis proposed by Study Group for Acute Severe Hearing Loss of the Ministry of Health, Labor and Welfare of Japan (refer to Audiology Japan., 45, 161-166 (2002)).

O[C@@H]1CO[C@H]2[C@@H]1OC[C@@H]2O [isosorbide]
efficacy against hearing impairment, tinnitus and a feeling of fullness in the ear (Meniere's disease): hardly been found to exhibit the efficacy

O=C(Nc1cccc2c(=O)cc(-c3nnn[nH]3)oc12)c1ccc(OCCCCc2ccccc2)cc1 [pranlukast hydrate, 4-oxo-8-[4-(4-phenylbutoxy)benzoylamino]-2-(tetrazol-5-yl)-4H-1-benzopyran ½ hydrate]
minimum lethal dose (mice): not less than 2000 mg/kg | minimum lethal dose (rats): not less than 2000 mg/kg | overall efficacy, patients in whom efficacy was recognized ([1]; oral, not less than three weeks (up to 24 weeks), 17 out of 19 patients): 89.5% | effective rate in patients suffering from vertigo (rotary vertigo or stagger) ([1]; 6 out of 6 patients): 100% | efficacy in patients complaining of the subjective symptoms ([1]; 15 out of 19 patients): 78.9% | efficacy in patients suffering from hearing impairment ([1]; 15 out of 19 patients): 78.9% | average hearing level recovered ([2]; 450 mg daily, after one month of administration, affected ear): 19 dB | efficacy evaluation (healed/ameliorated/unchanged/worsened) ([2]; 450 mg daily, after two months of administration): healing | effect on subjective symptoms and hearing ([2]; 450 mg daily, within one week of administration): tendency of amelioration | Hearing in the sound ear 500 Hz ([2]; after one month): 15 dB | Hearing in the sound ear 250 Hz ([2]; after one month): 15 dB | Hearing in the sound ear Average hearing level ([2]; after one month): 18 dB | Hearing in the sound ear 125 Hz ([2]; after one month): 25 dB | Hearing in the affected ear 500 Hz ([2]; after one month): 15 dB | Hearing in the affected ear 125 Hz ([2]; after one month): 30 dB | Hearing in the affected ear Average hearing level ([2]; after one month): 23 dB | Hearing in the affected ear 250 Hz ([2]; after one month): 25 dB | Hearing in the sound ear 500 Hz ([2]; after two months): 10 dB | Hearing in the sound ear 250 Hz ([2]; after two months): 15 dB | Hearing in the sound ear Average hearing level ([2]; after two months): 17 dB | Hearing in the sound ear 125 Hz ([2]; after two months): 25 dB | Hearing in the affected ear 500 Hz ([2]; after two months): 10 dB | Hearing in the affected ear 125 Hz ([2]; after two months): 25 dB | Hearing in the affected ear Average hearing level ([2]; after two months): 18 dB | Hearing in the affected ear 250 Hz ([2]; after two months): 20 dB
